The target of one test is T1, LOXL3 (Homo sapiens, UniProt P58215).
T1 sequence (P58215 26-753): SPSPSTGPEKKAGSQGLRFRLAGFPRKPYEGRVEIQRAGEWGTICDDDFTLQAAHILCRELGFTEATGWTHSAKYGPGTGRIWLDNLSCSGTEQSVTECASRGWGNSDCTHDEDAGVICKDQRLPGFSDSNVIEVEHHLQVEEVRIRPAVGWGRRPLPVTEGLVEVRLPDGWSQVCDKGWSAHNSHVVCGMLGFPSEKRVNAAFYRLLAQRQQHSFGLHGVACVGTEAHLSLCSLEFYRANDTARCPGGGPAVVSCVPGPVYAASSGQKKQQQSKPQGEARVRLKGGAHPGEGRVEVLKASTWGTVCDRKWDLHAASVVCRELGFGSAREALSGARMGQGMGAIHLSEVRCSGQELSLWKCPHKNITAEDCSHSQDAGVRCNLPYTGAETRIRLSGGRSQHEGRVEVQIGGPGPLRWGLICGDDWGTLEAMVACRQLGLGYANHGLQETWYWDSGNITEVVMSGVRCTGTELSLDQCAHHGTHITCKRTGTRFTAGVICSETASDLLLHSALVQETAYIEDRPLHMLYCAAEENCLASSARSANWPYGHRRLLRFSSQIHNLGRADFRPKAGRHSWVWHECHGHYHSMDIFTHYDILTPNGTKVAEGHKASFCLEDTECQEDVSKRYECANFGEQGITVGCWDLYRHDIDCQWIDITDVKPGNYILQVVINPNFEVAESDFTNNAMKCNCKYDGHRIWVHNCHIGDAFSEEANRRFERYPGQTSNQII
In words: LOXL3 enzyme assay (Promega ROS-Glo, cadaverine substrate). Format: biochemical.

A further test has as its target T2, LOXL2 (Homo sapiens, UniProt Q9Y4K0).
T2 sequence (Q9Y4K0 26-774): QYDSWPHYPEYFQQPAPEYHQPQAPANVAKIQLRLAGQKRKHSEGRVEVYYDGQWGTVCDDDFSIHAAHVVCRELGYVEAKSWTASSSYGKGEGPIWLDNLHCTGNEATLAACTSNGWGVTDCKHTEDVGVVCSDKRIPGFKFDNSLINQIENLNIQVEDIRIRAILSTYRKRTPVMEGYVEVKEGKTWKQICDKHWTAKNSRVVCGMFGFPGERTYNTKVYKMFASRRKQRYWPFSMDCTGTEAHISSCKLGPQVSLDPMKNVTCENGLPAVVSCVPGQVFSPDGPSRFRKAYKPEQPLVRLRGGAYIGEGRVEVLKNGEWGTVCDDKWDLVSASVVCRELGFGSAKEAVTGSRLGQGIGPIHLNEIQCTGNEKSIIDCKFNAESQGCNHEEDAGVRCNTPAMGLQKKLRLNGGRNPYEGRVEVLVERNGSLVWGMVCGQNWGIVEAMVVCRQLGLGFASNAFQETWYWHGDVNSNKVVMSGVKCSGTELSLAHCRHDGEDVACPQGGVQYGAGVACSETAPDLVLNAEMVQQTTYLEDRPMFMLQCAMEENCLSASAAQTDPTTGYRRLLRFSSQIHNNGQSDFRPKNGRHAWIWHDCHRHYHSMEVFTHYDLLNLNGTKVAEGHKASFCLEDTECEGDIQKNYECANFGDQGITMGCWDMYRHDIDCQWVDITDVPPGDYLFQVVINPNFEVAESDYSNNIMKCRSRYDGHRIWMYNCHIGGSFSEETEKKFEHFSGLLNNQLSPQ
In words: LOXL2 enzyme assay (Promega ROS-Glo, cadaverine substrate). The arrangement: Activity (LOXL2 activity used in the RVM model data matrix): unit not given here. Format: biochemical.

The target in a further test is T3, SSAO (Homo sapiens, UniProt Q16853).
T3 construct: purchased Sigma
T3 sequence (Q16853 1-763): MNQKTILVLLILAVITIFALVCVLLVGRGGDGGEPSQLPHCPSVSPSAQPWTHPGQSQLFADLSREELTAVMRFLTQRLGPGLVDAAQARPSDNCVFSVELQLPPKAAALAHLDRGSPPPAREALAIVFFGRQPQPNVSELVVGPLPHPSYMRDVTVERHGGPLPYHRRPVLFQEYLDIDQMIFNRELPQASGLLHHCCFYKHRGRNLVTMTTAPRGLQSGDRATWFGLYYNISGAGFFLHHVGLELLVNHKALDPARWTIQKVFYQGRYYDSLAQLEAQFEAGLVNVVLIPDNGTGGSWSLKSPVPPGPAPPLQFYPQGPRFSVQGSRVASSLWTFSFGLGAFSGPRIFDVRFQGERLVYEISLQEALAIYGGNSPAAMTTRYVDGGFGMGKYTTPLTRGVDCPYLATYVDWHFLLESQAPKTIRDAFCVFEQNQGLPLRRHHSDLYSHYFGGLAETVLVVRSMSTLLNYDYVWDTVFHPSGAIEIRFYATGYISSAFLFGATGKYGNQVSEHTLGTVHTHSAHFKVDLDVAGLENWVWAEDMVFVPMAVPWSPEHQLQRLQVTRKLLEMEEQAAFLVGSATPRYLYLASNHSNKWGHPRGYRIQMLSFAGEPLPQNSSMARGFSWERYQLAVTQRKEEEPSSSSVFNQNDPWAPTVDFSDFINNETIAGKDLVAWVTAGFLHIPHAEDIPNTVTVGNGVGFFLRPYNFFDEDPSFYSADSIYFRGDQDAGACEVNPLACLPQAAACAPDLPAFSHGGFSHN
The class given is biochemical.

A further test deals with T4, LOX (Sus scrofa, UniProt P45845).
T4 sequence (P45845 1-249): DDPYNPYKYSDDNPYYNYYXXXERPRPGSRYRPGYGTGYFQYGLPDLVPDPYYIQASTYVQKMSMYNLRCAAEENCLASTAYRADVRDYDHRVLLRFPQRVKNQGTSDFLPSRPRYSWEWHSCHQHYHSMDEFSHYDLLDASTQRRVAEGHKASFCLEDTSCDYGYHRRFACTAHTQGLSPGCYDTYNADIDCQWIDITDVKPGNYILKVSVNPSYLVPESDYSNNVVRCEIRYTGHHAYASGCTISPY
The test is described as follows: LOX enzyme assay (Promega ROS-Glo, cadaverine substrate). The class given is biochemical, pig. Particulars: Table 6; 1 h preincubation.

SMILES strings stand for the structures. pIC50: −log10 of the molar value. Values joined by “and” are separate entries in the source; they are usually repeats but may differ in a detail not shown here. Equal entries are not always repeated. Structures can show the parent of a compound that is named as a salt. Where two headings read alike, the source gives them in different places.

Description for LOXL2: (§1) LOXL2 and LOXL3 were purchased from R&D Systems. LOX, LOXL2, and LOXL3 catalytic activity were determined using the Promega ROS-Glo assay kit with cadaverine dihydrochloride as substrate, BAPN as the reference inhibitor control, a preincubation time of 20 min, 1 h, or 3 h, with nine dilutions from a top concentration of 10 μM or 100 μM.
Description for LOXL3: as §1
Description for SSAO: All amine oxidase assays were performed with concentrations as above. MAO-A and MAO-B enzymes were purchased from Sigma. The catalytic activity of MAO-A and MAO-B was determined using the Promega MAO-Glo assay kit (substrate included), with clorgyline and deprenyl as reference inhibitor controls, respectively. DAO was purchased from Sigma, and the catalytic activity was determined using the Promega ROS-Glo assay kit, with aminoguanidine as the reference inhibitor control. SSAO was purchased from Sigma. SSAO catalytic activity was determined using the Promega MAO-Glo assay kit, with mofegiline as the reference inhibitor control.

On to `CS(=O)(=O)c1cc(-c2ccccc2)cc(S(=O)(=O)c2ccc(CN)s2)c1` [Compound 3a], for which the pIC50 (as a rule, the IC50 on a negative log10 scale, so that one unit is a factor of ten) against LOXL3 is 4.87 and 4.73.

Consider `NCc1ccc(S(=O)(=O)c2ccc3ccccc3c2)s1` [Compound 4], for which, on LOXL2, the “increase in LOXL2 potency on increasing preincubation from 20 min to 1 h” value is listed as no more than 5 fold.

Compound `NCc1ncc(S(=O)(=O)c2ccc3ccccc3c2)s1` [Compound 6] gave a pIC50 at SSAO of 4.33. For the compound `CNCc1ncc(S(=O)(=O)c2cc(-c3ccccc3)cc(S(C)(=O)=O)c2)s1` [Compound 7b, N-Methyl-1-(5-((5-(methylsulfonyl)-[1,1′-biphenyl]-3-yl)sulfonyl)thiazol-2-yl)methanamine Hydrochloride], the pIC50 on LOXL2 (read-out: LOXL2, IC50) was 4.17. With `CS(=O)(=O)c1cc(-c2ccccc2)cc([S+]([O-])c2cnc(CN)s2)c1` (stereo not drawn) [Compound 7c, (5-((5-(Methylsulfonyl)-[1,1′-biphenyl]-3-yl)sulfinyl)thiazol-2-yl)methanamine Hydrochloride], the pIC50 on LOXL2 (read-out: LOXL2 IC50) is 6.61 and 6.63. Regarding `CS(=O)(=O)c1cc(Sc2cnc(CN)s2)cc(-c2ccccc2)c1` [Compound 7d, (5-((5-(Methylsulfonyl)-[1,1′-biphenyl]-3-yl)thio)thiazol-2-yl)methanamine Hydrochloride], the pIC50 at LOXL2 (read-out: LOXL2 IC50) is 6.63; on LOX, 5.88 and 5.95.

As to `CCCS(=O)(=O)c1cnc(CN)s1` [Compound 10, (5-(Propylsulfonyl)thiazol-2-yl)methanamine Hydrochloride], on LOXL2, the “Activity (LOXL2 activity used in the RVM model data matrix)” value worked out at 6.24. For the same compound, the pIC50 on LOXL2 (Table 3, 1 h preincubation, read-out: LOXL2 IC50) is 6.26 and 6.23. Turning to `CS(=O)(=O)c1cccc(S(=O)(=O)c2cnc(CN)s2)c1` [Compound 13, (5-((3-(Methylsulfonyl)phenyl)sulfonyl)thiazol-2-yl)methanamine Hydrochloride], the pIC50 on LOXL2 (read-out: LOXL2 IC50) is 6.74 and 6.61.

`CS(=O)(=O)c1cccc(-c2cnc(CN)s2)c1` [Compound 14, (5-(3-(Methylsulfonyl)phenyl)thiazol-2-yl)methanamine Hydrochloride]: the pIC50 at LOXL2 (read-out: LOXL2 IC50) is 6.38 and 6.40.

For the compound `NCc1ncc(-c2cccc(-c3ccccc3)c2)s1` [Compound 16, (5-([1,1′-Biphenyl]-3-yl)thiazol-2-yl)methanamine Hydrochloride], the pIC50 at LOXL2 (read-out: LOXL2 IC50) was 5.76 and 5.80. On to `CS(=O)(=O)c1cc(-c2ccccc2)cc(-c2cnc(CN)s2)c1` [Compound 17, (5-(5-(Methylsulfonyl)-[1,1′-biphenyl]-3-yl)thiazol-2-yl)methanamine Hydrochloride], for which, on LOXL2, the “Activity (LOXL2 activity used in the RVM model data matrix)” value is listed as 6.16. For the same compound, the pIC50 at LOXL2 (read-out: LOXL2 IC50) was 6.19 and 6.15; against LOX, 4.28 and 4.33. Consider `Cc1ccc(-c2cc(S(C)(=O)=O)cc(S(=O)(=O)c3cnc(CN)s3)c2)cc1` [Compound 18, (5-((4′-Methyl-5-(methylsulfonyl)-[1,1′-biphenyl]-3-yl)sulfonyl)thiazol-2-yl)methanamine Hydrochloride], for which, on SSAO, the pIC50 is 5.57 and 5.89. Turning to `Cn1cc(-c2cc(Cl)cc(S(=O)(=O)c3cnc(CN)s3)c2)cn1` [Compound 21d, (5-((3-Chloro-5-(1-methyl-1H-pyrazol-4-yl)phenyl)sulfonyl)thiazol-2-yl)methanamine Hydrochloride], the IC50 at LOXL2 (Activity column of RVM_model_LOXL2.csv, Type = Data matrix, input activity for the RVM model of LOXL2, read-out: Activity (LOXL2 activity used in the RVM model data matrix) (converted)) was 309 nM. Further, the pIC50 on LOXL2 (read-out: LOXL2 IC50) was 6.55.

For the origin of these results see PMC7073924, “2-Aminomethylene-5-sulfonylthiazole Inhibitors of Lysyl Oxidase (LOX) and LOXL2 Show Significant Efficacy in Delaying Tumor Growth” (Journal of Medicinal Chemistry, 2019).
